For one data set, the system named is HeLa cells. As to the kind of experiment: sulforhodamine B (SRB) antiproliferative assay. Particulars: Homo sapiens, HeLa; Table 5; read-out: GI50 in HeLa. Type of data set: cell-based, human. An excerpt:
HCC1806 (CRL-2335) and HCC1937 (CRL-2336) human triple-negative breast cancer cells, HeLa (CCL-2) cervical cancer cells and SK-OV-3 (HTB-77) ovarian cancer cells were obtained from ATCC (Manassas, Va.) and validated by STR profiling (Genetica). SK-OV-3 cells stably overexpressing Pgp by adenoviral-mediated expression of MDR1 were obtained from Dr. Susan Kane and subcloned by limiting dilution to isolate the single-cell clones utilized in these studies as SK-OV-3-MDR-1-6/6 (Risinger, A. L. et al. (2008) Cancer Res. 68, 8881-8888). A single-cell clone from transfection of HeLa cells with βIII-tubulin, designated wild type βIII, was constructed and obtained from Dr. Richard Luduena (Risinger, A. L. et al. (2008) Cancer Res. 68, 8881-8888). HCC1806 and HCC1937 cells were cultured in RPMI 1640 media (Corning) with 10% FBS (Cellgro) and 50 μg/mL gentamicin (Gibco). HeLa, […] expressing HeLa, SK-OV-3 and SK-OV-3/MDR-1-6/6 cells were grown in BME media with Earle's salts (Gibco) with 10% FBS, 1× final 1% GlutaMax™ Supplement (Gibco), and […] gentamicin. The use of HeLa cells allows for the direct comparison of the in vitro potency as compared to other compounds of this class, which have been predominantly reported in this line and compound potencies are consistent among three additional cancer cell lines. HeLa cells were also used for ectopic expression of tubulin mutants due to the high degree of transfectability of this cell line. Cells were tested for mycoplasma contamination using the Mycoplasma Detection Kit-Quick Test (Cat: B39032, Lot: JW004).
The sulforhodamine B (SRB) assay was utilized to examine the antiproliferative and cytotoxic effects of the compounds (Skehan, P. et al. (1990) J. Natl. Cancer Inst. 82, 1107-1112; Vichai and Kirtikara (2006) Nat. Protoc. 1, 1112-1116). Approximately 2,000 cells per well (for SK-OV-3, HeLa and βIII-tubulin expressing HeLa) or 4,000 cells per well (for HCC1806 and HCC1937) were seeded in 96-well plates. For each biological replicate, cells were treated in triplicate with each concentration of compound or vehicle control for 48 h in a final volume of 200 μL. The plates were fixed with 10% trichloroacetic acid for protein precipitation of adherent cells and then washed with distilled water. 100 μL of SRB dye, which binds protein stoichiometrically, was added and then unbound dye removed with 1% acetic acid followed by the addition of 200 μL 10 mM Tris to solubilize the dye, which was quantified by absorbance at 560 nm. The percent growth of treated cells relative to the density at the time of drug addiction was calculated as compared to vehicle treated cells.
Background: Sulforhodamine B stains cellular protein and so reports cell mass.

For data set [1] the following is noted: unprotected form; Mottram et al. 2006; cited from earlier work.

GI50 and pKa data for 17 molecules are collected here from patent publication US20230061432A1, “NEW TECHNOLOGY TO CONJUGATE THE TACCALONOLIDE MICROTUBULE STABILIZERS WITH LINKERS/PAYLOADS” (priority 2019, published 2023).

As to `CC(=O)O[C@H]1[C@H]2[C@@H]([C@@H](O)[C@@H](NC(=O)CNC(=O)c3ccc4c(c3)C(=O)OC43c4ccc(OC(=O)C(C)(C)C)cc4Oc4cc(OC(=O)C(C)(C)C)ccc43)[C@H]3C[C@@H]4O[C@@H]4[C@H](OC(C)=O)[C@]23C)[C@@H]2[C@@H](O)[C@@H]3[C@H]([C@H](C)[C@H]4O[C@]45OC(=O)[C@@](C)(O)[C@]35C)[C@@]2(C)[C@H]1OC(C)=O` [164E], the GI50 – broadly, the concentration giving 50% growth inhibition – in the data set on HeLa cells stood at 0.74 µM.
Still for that read-out and setting: in the case of `CC(=O)O[C@H]1[C@H]2[C@@H]([C@@H](O)[C@@H](NC(=O)CCNC(=O)c3ccc4c(c3)C(=O)OC43c4ccc(OC(=O)C(C)(C)C)cc4Oc4cc(OC(=O)C(C)(C)C)ccc43)[C@H]3C[C@@H]4O[C@@H]4[C@H](OC(C)=O)[C@]23C)[C@@H]2[C@@H](O)[C@@H]3[C@H]([C@H](C)[C@H]4O[C@]45OC(=O)[C@@](C)(O)[C@]35C)[C@@]2(C)[C@H]1OC(C)=O` [163D] it was 2 µM.
On the same count and under the same terms, in the case of `CC(=O)Oc1cc2c(cc1F)C1(OC(=O)c3cc(C(=O)NCc4cn(CCCC(=O)N[C@@H]5[C@H](O)[C@H]6[C@@H]7[C@@H](O)[C@@H]8[C@H]([C@H](C)[C@H]9O[C@]9%10OC(=O)[C@@](C)(O)[C@]8%10C)[C@@]7(C)[C@@H](OC(C)=O)[C@@H](OC(C)=O)[C@@H]6[C@]6(C)[C@@H]5C[C@@H]5O[C@@H]5[C@@H]6OC(C)=O)nn4)ccc31)c1cc(F)c(OC(C)=O)cc1O2` [154J] it was more than 10 µM; in that of `CC(=O)O[C@H]1[C@H]2[C@@H]([C@@H](O)[C@@H](NC(=O)CCCCCCn3cc(COc4ccc5c(c4)Oc4cc(O)ccc4C54OC(=O)c5ccccc54)nn3)[C@H]3C[C@@H]4O[C@@H]4[C@H](OC(C)=O)[C@]23C)[C@@H]2[C@@H](O)[C@@H]3[C@H]([C@H](C)[C@H]4O[C@]45OC(=O)[C@@](C)(O)[C@]35C)[C@@]2(C)[C@H]1OC(C)=O` (some centres unmarked) [158F], 6 µM; in that of `CC(=O)Oc1cc2c(cc1F)C1(OC(=O)c3cc(C(=O)NCCC(=O)N[C@@H]4[C@H](O)[C@H]5[C@@H]6[C@@H](O)[C@@H]7[C@H]([C@H](C)[C@H]8O[C@]89OC(=O)[C@@](C)(O)[C@]79C)[C@@]6(C)[C@@H](OC(C)=O)[C@@H](OC(C)=O)[C@@H]5[C@]5(C)[C@@H]4C[C@@H]4O[C@@H]4[C@@H]5OC(C)=O)ccc31)c1cc(F)c(OC(C)=O)cc1O2` [163E], more than 10 µM.
Regarding `O=C(O)c1ccccc1-c1c2cc(F)c(=O)cc-2oc2cc(O)c(F)cc12` [Oregon Green, Oregon green], the pKa (in general, the pH at which an ionisable group is half protonated) in data set [1] was 4.8.
Take `CC(=O)O[C@H]1[C@H]2[C@@H]([C@@H](O)[C@H](NC(=O)CCCN=[N+]=[N-])[C@H]3C[C@@H]4O[C@@H]4[C@H](OC(C)=O)[C@]23C)[C@@H]2[C@@H](O)[C@@H]3[C@H]([C@H](C)[C@H]4O[C@]45OC(=O)[C@@](C)(O)[C@]35C)[C@@]2(C)[C@H]1OC(C)=O` [152D]: in the data set on HeLa cells, the GI50 worked out at 0.12 µM.
The same measure, in the same setting: with `CC(=O)O[C@H]1[C@H]2C([C@@H](O)[C@@H](NC(=O)c3ccc4c(c3)C(=O)OC43c4ccc(OC(=O)C(C)(C)C)cc4Oc4cc(OC(=O)C(C)(C)C)ccc43)[C@H]3C[C@@H]4O[C@@H]4[C@H](OC(C)=O)[C@@]32C)[C@@H]2[C@@H](O)[C@@H]3[C@H]([C@H](C)[C@H]4O[C@]45OC(=O)[C@@](C)(O)[C@]35C)[C@@]2(C)[C@H]1OC(C)=O` (some centres unmarked) [164B] the figure was 0.031 µM; with `CC(=O)O[C@H]1[C@H]2[C@@H]([C@@H](O)[C@@H](NC(=O)CCCCCCn3cc(COc4cc5c(cc4F)C4(OC(=O)c6ccccc64)c4cc(F)c(O)cc4O5)nn3)[C@H]3C[C@@H]4O[C@@H]4[C@H](OC(C)=O)[C@]23C)[C@@H]2[C@@H](O)[C@@H]3[C@H]([C@H](C)[C@H]4O[C@]45OC(=O)[C@@](C)(O)[C@]35C)[C@@]2(C)[C@H]1OC(C)=O` (some centres unmarked) [158E], more than 10 µM.
On to `O=C1OC2(c3ccc(O)cc3Oc3cc(O)ccc32)c2ccccc21` [fluorescein], for which the pKa in data set [1] is 6.5.
`CC(=O)O[C@H]1[C@H]2[C@@H]([C@@H](O)[C@@H](NC(=O)CCCn3cc(COc4cc5c(cc4F)C4(OC(=O)c6ccccc64)c4cc(F)c(O)cc4O5)nn3)[C@H]3C[C@@H]4O[C@@H]4[C@H](OC(C)=O)[C@]23C)[C@@H]2[C@@H](O)[C@@H]3[C@H]([C@H](C)[C@H]4O[C@]45OC(=O)[C@@](C)(O)[C@]35C)[C@@]2(C)[C@H]1OC(C)=O` (some centres unmarked) [155F]: the GI50 with HeLa cells was 3.7 µM.
On the same count and under the same terms, with `CC(=O)O[C@H]1[C@H]2[C@@H]([C@@H](O)[C@@H](NC(=O)CCCn3cc(COc4ccc5c(c4)Oc4cc(O)ccc4C54OC(=O)c5ccccc54)nn3)[C@H]3C[C@@H]4O[C@@H]4[C@H](OC(C)=O)[C@]23C)[C@@H]2[C@@H](O)[C@@H]3[C@H]([C@H](C)[C@H]4O[C@]45OC(=O)[C@@](C)(O)[C@]35C)[C@@]2(C)[C@H]1OC(C)=O` (some centres unmarked) [155G] the figure was 8.4 µM.
For `CC(=O)O[C@H]1[C@H]2[C@@H]([C@@H](O)[C@@H](NC(=O)CCCn3cc(CNC(=O)c4ccc(-c5c6cc(F)c(=O)cc-6oc6cc(O)c(F)cc56)c(C(=O)O)c4)nn3)[C@H]3C[C@@H]4O[C@@H]4[C@H](OC(C)=O)[C@]23C)[C@@H]2[C@@H](O)[C@@H]3[C@H]([C@H](C)[C@H]4O[C@]45OC(=O)[C@@](C)(O)[C@]35C)[C@@]2(C)[C@H]1OC(C)=O` [154B], the GI50 in the data set on HeLa cells is more than 10 µM.
The same measure, in the same setting: in the case of `CC(=O)Oc1ccc2c(c1)Oc1cc(OC(C)=O)ccc1C21OC(=O)c2cc(C(=O)NCCC(=O)N[C@@H]3[C@H](O)[C@H]4[C@@H]5[C@@H](O)[C@@H]6[C@H]([C@H](C)[C@H]7O[C@]78OC(=O)[C@@](C)(O)[C@]68C)[C@@]5(C)[C@@H](OC(C)=O)[C@@H](OC(C)=O)[C@@H]4[C@]4(C)[C@@H]3C[C@@H]3O[C@@H]3[C@@H]4OC(C)=O)ccc21` [162C] it was 10 µM; in that of `CC(=O)O[C@H]1[C@H]2[C@@H]([C@@H](O)[C@@H](NC(=O)CCCn3cc(CNC(=O)CCCC[C@@H]4SC[C@@H]5NC(=O)N[C@@H]54)nn3)[C@H]3C[C@@H]4O[C@@H]4[C@H](OC(C)=O)[C@]23C)[C@@H]2[C@@H](O)[C@@H]3[C@H]([C@H](C)[C@H]4O[C@]45OC(=O)[C@@](C)(O)[C@]35C)[C@@]2(C)[C@H]1OC(C)=O` [154C], more than 10 µM; in that of `CC(=O)O[C@H]1[C@H]2[C@@H]([C@@H](O)[C@@H](NC(=O)CCCN=[N+]=[N-])[C@H]3C[C@@H]4O[C@@H]4[C@H](OC(C)=O)[C@]23C)[C@@H]2[C@@H](O)[C@@H]3[C@H]([C@H](C)[C@H]4O[C@]45OC(=O)[C@@](C)(O)[C@]35C)[C@@]2(C)[C@H]1OC(C)=O` [152E], 0.09 µM.
Still for that read-out and setting: in the case of `CC(=O)O[C@H]1[C@H]2[C@@H]([C@@H](O)[C@@H](NC(=O)CCCn3cc(CCC(=O)NCCCC[C@@H](NC(=O)[C@H](Cc4ccc(O)cc4)NC(=O)[C@H](CO)NC(=O)[C@H](Cc4c[nH]c5ccccc45)NC(=O)[C@H](Cc4c[nH]cn4)NC(=O)[C@@H]4CCC(=O)N4)C(=O)N[C@@H](CC(C)C)C(=O)N[C@@H](CCCNC(=N)N)C(=O)N4CCC[C@H]4C(=O)NCC(N)=O)nn3)[C@H]3C[C@@H]4O[C@@H]4[C@H](OC(C)=O)[C@]23C)[C@@H]2[C@@H](O)[C@@H]3[C@H]([C@H](C)[C@H]4O[C@]45OC(=O)[C@@](C)(O)[C@]35C)[C@@]2(C)[C@H]1OC(C)=O` [171B] it was 2.6 µM.
